Data: patent US9511143B2, “Aqueous compositions comprising arbekacin” (Meiji Seika Pharma Co., Ltd., priority 2011, dated 2016)

Tests used:
[1] = test system: P. aeruginosa MSC17707; assay: Experimental pneumonia caused by Pseudomonas aeruginosa in neutropenic mice, inhalation therapy; type: in vivo; conditions: for viable cell counts in the lung in comparison to the non-treatment control group: all the dose levels; for Number of intrapulmonary viable cells: 5 min inhalation 2 h after infection, count 20 h after infection, neutropenic mice, mean ± SD
Procedure: The therapeutic effect of arbekacin inhalation on experimental pneumonia in neutropenic mice, caused by P. aeruginosa, was compared with the therapeutic effect of amikacin and tobramycin.
Cyclophosphamide (Sigma-Aldrich Co.) was dissolved in physiological saline. Four to five week-old Crlj:CD1(ICR) male mice were immunosuppressed by intraperitoneal injection of 150 and 100 mg/kg of cyclophosphamide solution 4 days and 1 day before infection, respectively. Thereafter, pulmonary infection was induced by intranasal inoculation of amikacin- and tobramycin-resistant P. aeruginosa having the aac(6)-lae encoding an aminoglycoside modifying enzyme. The antibiotics dissolved in saline were administered to each mouse using an electronic vibrating membrane nebulizer (eFlow®, PARI Pharma GmbH, spray flow rate: approximately 0.5 ml/min) two hours after the infection, and viable cells per lung were counted 20 hours after the infection. As for the doses of arbekacin, three levels were set at 3, 10 and 30 mg/ml, and the respective doses of amikacin and tobramycin were at three levels of 10, 30, and 100 mg/ml. The inhalation duration was five minutes. Meanwhile, physiological saline was administered to a non-treatment control group.

[2] = test system: guinea pigs; parameters: species or system guinea pig (male Hartley strain); conditions: guinea pig, in vivo
Procedure: A guinea-pig cough induction model was used to investigate differences in cough induction between the sulfate and hydrochloride forms of arbekacin. The tested substances were commercially available arbekacin sulfate (ABK—H2SO4) and arbekacin hydrochloride (ABK—HCl) that was prepared from arbekacin free base according to the method described in Example 2. The concentration of dosing solutions was set to be 25 mg/ml. In addition, physiological saline was used as a negative control agent whereas citric acid (30 mg/ml) was used as a positive control agent.
Male Hartley strain guinea pigs were subjected to the experiment, with 10 animals per group. […] Cough was detected on the basis of the following indicators: observation of symptoms, analysis of a respiration pattern in the soma-side by a double-flow plethysmograph method using a multi-functional respiration measuring device (Win Pulmos-I, M-I-P-S Corporation), and pressure changes in head-side and soma-side chambers measured by a pressure transducer (blood pressure monitoring kit, Japan Becton, Dickinson and Company). The case, in which a motion of coughing in the symptom observation was noted together with typical changes in the pressure in the head-side and soma-side chambers and in the respiration pattern of the soma side at the time of coughing, was determined to be a cough reflex. […] Then, the occurrence of cough reflex was counted. […]

SMILES | viable cell counts in the lung in comparison to the non-treatment control group [1] | Number of intrapulmonary viable cells ([1]; level of drug 10 mg/ml) [log10 CFU/lung] | Number of intrapulmonary viable cells ([1]; level of drug 30 mg/ml) [log10 CFU/lung] | Number of intrapulmonary viable cells ([1]; level of drug 100 mg/ml) [log10 CFU/lung] | Number of intrapulmonary viable cells ([1]; level of drug 3 mg/ml) [log10 CFU/lung] | therapeutic effect compared to amikacin and tobramycin ([1]; same dosage (10 or 30 mg/ml)) | number of occurrence of cough reflex / cough induction, comparison between groups [2]
NCC[C@H](O)C(=O)N[C@@H]1C[C@H](N)[C@@H](O[C@H]2O[C@H](CN)[C@@H](O)[C@H](O)[C@H]2O)[C@H](O)[C@H]1O[C@H]1O[C@H](CO)[C@@H](O)[C@H](N)[C@H]1O [Amikacin, amikacin] | significantly decreased | 5.65 ± 1.55 | 4.46 ± 1.68 | 2.65 ± 1.74 | – | – | –
NCC[C@H](O)C(=O)N[C@@H]1C[C@H](N)[C@@H](O[C@H]2O[C@H](CN)CC[C@H]2N)[C@H](O)[C@H]1O[C@H]1O[C@H](CO)[C@@H](O)[C@H](N)[C@H]1O [Arbekacin, arbekacin] | significantly decreased | 2.20 ± 0.99 | 1.98 ± 0.83 | – | 4.07 ± 2.18 | significantly superior | –
O=C(O)CC(O)(CC(=O)O)C(=O)O [Citric Acid, citric acid] | – | – | – | – | – | – | significantly higher
NC[C@H]1O[C@H](O[C@H]2[C@H](O)[C@@H](O[C@H]3O[C@H](CO)[C@@H](O)[C@H](N)[C@H]3O)[C@H](N)C[C@@H]2N)[C@H](N)C[C@@H]1O [Tobramycin, tobramycin] | significantly decreased | 5.74 ± 1.57 | 3.48 ± 1.85 | 3.53 ± 1.88 | – | – | –
